The record followed here is patent US10561638B2, “Methods for treating dependence” (Biotie Therapies, Inc., priority 2007, dated 2020).

The test system of data set [1] is normal dogs. Description: Cardiovascular effects of i.v. dosing in dogs. Conditions: anesthetized dogs, 1-10 mg/kg i.v., up to five hours. In kind it is in vivo.
A short description of data set [2]: Tolerability in patients with chronic heart failure. The data set is classed as in vivo, human. As for the experimental part: The dose at which the frequency of significant adverse events increased was 160 mg.
The target of data set [3] is D2 dopamine receptors (Homo sapiens, UniProt P14416). As to the kind of experiment: Radioligand binding assay. On the procedure:
(§1) The activity of nepicastat at twelve selected enzymes and receptors was determined using established assays. Binding data were analyzed by iterative curve-fitting to a four parameter logistic equation. Ki values were calculated from IC50 values using the Cheng-Prusoff equation. Enzyme inhibitory activity was expressed as IC50 (concentration required to produce 50% inhibition of enzyme activity).
(§2) The activity of nepicastat at eleven different enzymes was determined using established assays. The affinity of nepicastat for thirteen selected receptors was determined by radioligand binding assays using standard filtration techniques and membrane preparations. Binding data were analyzed by iterative curve fitting to a four parameter logistic equation. Ki values were calculated using the Cheng-Prusoff equation.
(§3) The binding affinity for nepicastat was screened at selected receptors. […] Thus nepicastat and its primary metabolite were not potent inhibitors for the receptors listed above.

Data set [4] concerns the target 5-HT2A serotonin receptors (Homo sapiens, UniProt P28223). As to the kind of experiment: Radioligand binding assay. As for the experimental part: as §1, §2, §3
Data set [5] has as its target 5-HT2C serotonin receptors (Homo sapiens, UniProt P28335). As to the kind of experiment: Radioligand binding assay. On the procedure:
as §1, §2, §3

Data set [6] concerns the target 5-HT1A serotonin receptors (Homo sapiens, UniProt P08908). Description: Radioligand binding assay. On the procedure:
as §1, §2, §3

The target of data set [7] is D1 dopamine receptors (Homo sapiens, UniProt P21728). As to the kind of experiment: Radioligand binding assay. On the procedure:
as §1, §2, §3

For data set [8], the target named is M1 muscarinic receptors (Homo sapiens, UniProt P11229). Description: Radioligand binding assay. As for the experimental part:
as §1, §2, §3

Data set [9] has as its system tissue norepinephrine and dopamine levels. Description: Tissue catecholamines in SHRs after single dose (dose response, time course). The data set is classed as in vivo, spontaneously hypertensive rats. The conditions noted are these: 6.2 mg/kg oral or i.v., 0.5 to 4 hours.
Data set [10] concerns short-term or working memory in rats. Description: Delayed-matching-to-position (DMTP) test. In kind it is in vivo, Sprague Dawley rats. As for the experimental part: In the present DMTP study, rats were trained to remember the position of a lever across a scheduled delay of either 0, 8, 16 or 32 s in order to earn food reward. […] Another group of rats received only vehicle treatment throughout the experiment. […] The dependent measures in the present study included percentage of correct choices, the latency to make choice responses and the number of trials which the animals were able to complete during the 70 min test sessions. Changes in the former measure may indicate changes in memory and/or attentional function whereas changes in the latter two measures may be indicative of other non-cognitive effects of the drugs. Matching to position training began next. This and all subsequent training was conducted with the partitions fitted into the operant boxes. The sessions were initially 50 minutes long. Rats were placed in the operant box and the session began when the houselight was illuminated. Following a 30 s intertrial interval (ITI), one of the two levers (the sample lever) was inserted into the chamber. The lever remained inserted into the chamber until a lever-press response occurred. […] As soon as the magazine flap was pressed the magazine light was extinguished and both levers were inserted. […] The magazine light remained on until the flap was pressed. […] A 30 s ITI was initiated before the commencement of a new trial. The lever inserted as the sample lever was semi-randomly determined such that the right and lefthand levers were presented as the sample lever 8 times in a block of 16 trials. Following 24 sessions, the animals were performing the matching to position task with a high degree of accuracy. On Session 25 a variable delay interval was interposed between the depression of the sample lever and presentation of the levers on the choice trial. After a response to the sample lever, the choice levers were inserted following the first flap press occurring after either a 0 s (immediate), 4, 8 or 16 s delay. The order of the four types of trials (0, 4, 8 or 16 s delay) was semi-randomly determined with the constraint that in a 16 trial block, each delay occurred 4 times; twice on a left trial and twice on a right trial. […] The same trial was reinstated following the end of the ITI. From Session 25 onward the time-out period following incorrect choices was omitted and the session length was increased to 70 minutes. […] Due to poor performance at the 64 s delay, however, this delay was not used in any further sessions. On Session 59, delays of 0, 8, 16 and 32 s were used. These delays were used in all subsequent sessions. Only 51 of the 56 rats completed more than 24 trials (correction plus non-correction) during Session 59. These rats were selected and semi-randomly assigned to the following 7 groups such that the groups were matched on performance (percent correct, response latency and number of trials completed): […] Thus, the drug treatments administered to the seven groups during the 11 consecutive days of the present experiment were: The data collected and analyzed in the present DMTP study include 1) the percentage of correct responses; 2) the latency between performance of a response to the sample lever and the performance of the choice response and 3) the total number of correction and non-correction trials completed. The former two dependent measures were collected for the non-correction trials only. […] Two-way analysis of variance (ANOVA) with drug treatment as the between-subjects factor and delay (0, 8, 16 or 32 s) as the within-subjects factor was used to analyze percentage of correct choices and response latency. These analyses were conducted separately for each block of data. Significant interactions were followed by a one-way ANOVA which was conducted at each delay. A significant main effect from a one-way ANOVA was followed by a two-tailed Dunnett's t-test. One-way ANOVA followed by a post hoc Dunnett's test, when appropriate, was used to analyze the mean number of trials completed. […]

Data set [11] concerns SHRs. As to the kind of experiment: 21 day daily treatment of SHRs, tail cuff and direct blood pressure. The data set is classed as in vivo, spontaneously hypertensive rats.

5-HT2C serotonin receptors, sequence (P28335 33-458): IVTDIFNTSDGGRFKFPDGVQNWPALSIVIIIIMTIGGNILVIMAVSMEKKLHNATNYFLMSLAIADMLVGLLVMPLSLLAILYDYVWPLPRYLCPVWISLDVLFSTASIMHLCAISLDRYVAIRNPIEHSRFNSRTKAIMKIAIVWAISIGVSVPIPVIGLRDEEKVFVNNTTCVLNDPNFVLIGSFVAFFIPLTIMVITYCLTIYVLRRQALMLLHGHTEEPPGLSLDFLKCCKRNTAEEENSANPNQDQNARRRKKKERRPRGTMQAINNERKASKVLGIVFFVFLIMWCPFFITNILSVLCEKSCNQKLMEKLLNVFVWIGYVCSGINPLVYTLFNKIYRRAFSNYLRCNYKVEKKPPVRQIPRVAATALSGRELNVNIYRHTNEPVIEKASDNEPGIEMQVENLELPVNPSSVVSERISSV
5-HT1A serotonin receptors, sequence (P08908 whole entry): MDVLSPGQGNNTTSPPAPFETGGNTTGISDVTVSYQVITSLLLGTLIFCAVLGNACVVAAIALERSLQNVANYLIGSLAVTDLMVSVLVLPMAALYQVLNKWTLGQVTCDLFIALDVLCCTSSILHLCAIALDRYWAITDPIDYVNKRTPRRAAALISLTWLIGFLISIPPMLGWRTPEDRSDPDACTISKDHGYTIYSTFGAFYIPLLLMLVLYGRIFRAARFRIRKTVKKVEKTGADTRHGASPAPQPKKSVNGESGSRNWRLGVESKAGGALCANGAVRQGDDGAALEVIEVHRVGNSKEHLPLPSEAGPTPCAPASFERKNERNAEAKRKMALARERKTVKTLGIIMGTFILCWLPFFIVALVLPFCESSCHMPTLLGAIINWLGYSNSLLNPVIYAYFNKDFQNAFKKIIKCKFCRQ
5-HT2A serotonin receptors, sequence (P28223 whole entry): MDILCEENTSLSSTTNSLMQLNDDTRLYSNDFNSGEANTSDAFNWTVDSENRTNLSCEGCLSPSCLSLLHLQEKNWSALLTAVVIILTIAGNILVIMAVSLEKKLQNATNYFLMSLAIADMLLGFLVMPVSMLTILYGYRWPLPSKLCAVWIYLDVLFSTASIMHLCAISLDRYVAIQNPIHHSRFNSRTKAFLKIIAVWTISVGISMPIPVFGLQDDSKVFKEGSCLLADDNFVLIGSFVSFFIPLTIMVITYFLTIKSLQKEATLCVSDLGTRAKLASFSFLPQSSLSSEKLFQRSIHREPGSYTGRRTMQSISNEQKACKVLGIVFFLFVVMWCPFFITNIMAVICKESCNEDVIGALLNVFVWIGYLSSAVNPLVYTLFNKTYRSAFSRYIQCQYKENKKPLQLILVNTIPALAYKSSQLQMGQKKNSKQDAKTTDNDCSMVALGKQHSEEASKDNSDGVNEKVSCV
D2 dopamine receptors, sequence (P14416 whole entry): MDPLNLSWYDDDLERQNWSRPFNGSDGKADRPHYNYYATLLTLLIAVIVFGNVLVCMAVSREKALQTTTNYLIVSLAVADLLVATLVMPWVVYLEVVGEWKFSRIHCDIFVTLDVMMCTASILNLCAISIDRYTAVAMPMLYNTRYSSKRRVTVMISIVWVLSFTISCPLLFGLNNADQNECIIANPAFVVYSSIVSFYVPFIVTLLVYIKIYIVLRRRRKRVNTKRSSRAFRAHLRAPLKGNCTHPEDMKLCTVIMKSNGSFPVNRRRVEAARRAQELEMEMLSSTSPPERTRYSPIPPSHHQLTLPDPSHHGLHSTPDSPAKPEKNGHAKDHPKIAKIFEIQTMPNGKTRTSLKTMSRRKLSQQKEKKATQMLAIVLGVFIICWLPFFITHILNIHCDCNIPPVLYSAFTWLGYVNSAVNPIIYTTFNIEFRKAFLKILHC
D1 dopamine receptors, sequence (P21728 whole entry): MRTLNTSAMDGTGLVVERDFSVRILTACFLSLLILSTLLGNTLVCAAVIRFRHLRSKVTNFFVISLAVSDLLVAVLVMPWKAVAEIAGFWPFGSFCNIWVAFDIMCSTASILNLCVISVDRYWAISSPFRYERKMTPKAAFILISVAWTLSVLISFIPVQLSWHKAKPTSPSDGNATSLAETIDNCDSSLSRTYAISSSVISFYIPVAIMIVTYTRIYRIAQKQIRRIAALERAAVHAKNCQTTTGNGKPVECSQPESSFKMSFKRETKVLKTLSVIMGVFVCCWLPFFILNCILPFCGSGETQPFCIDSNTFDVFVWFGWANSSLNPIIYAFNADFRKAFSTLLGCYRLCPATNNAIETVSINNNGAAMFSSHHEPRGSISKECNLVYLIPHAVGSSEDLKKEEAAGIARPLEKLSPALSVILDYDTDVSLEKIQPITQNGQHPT
M1 muscarinic receptors, sequence (P11229 whole entry): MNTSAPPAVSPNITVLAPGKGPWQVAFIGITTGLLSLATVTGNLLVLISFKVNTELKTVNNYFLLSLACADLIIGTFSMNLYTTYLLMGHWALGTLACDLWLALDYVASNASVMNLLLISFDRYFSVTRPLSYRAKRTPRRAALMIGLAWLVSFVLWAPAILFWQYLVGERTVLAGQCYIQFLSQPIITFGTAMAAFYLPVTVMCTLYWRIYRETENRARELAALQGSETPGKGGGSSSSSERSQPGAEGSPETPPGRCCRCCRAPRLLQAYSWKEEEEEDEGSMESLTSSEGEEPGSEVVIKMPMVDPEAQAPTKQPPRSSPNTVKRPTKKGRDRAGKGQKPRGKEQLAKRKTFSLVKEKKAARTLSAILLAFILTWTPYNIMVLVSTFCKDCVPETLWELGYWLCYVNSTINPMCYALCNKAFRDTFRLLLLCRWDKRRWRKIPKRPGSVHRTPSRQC

A word on the Ki: it is the dissociation constant of the complex between target and ligand, obtained from inhibition or displacement. A low value points to tighter binding. Take `Cl.NCc1c[nH]c(=S)n1[C@H]1CCc2c(F)cc(F)cc2C1` [nepicastat, (S)-5-Aminomethyl-1-(5,7-difluoro-1,2,3,4-tetrahydronaphth-2-yl)-2,3-dihydro-2-thioxo-1H-imidazole hydrochloride]: the cardiovascular effects entry in data set [1] is on record as “no cardiovascular effects”. Further, in [2] (160 mg), the “patients with symptomatic orthostatic hypotension” value is recorded as 6 of the 8 patients. For the same compound, the “patients who developed a rash” value in data set [2] (160 mg for 8 days or longer) is “Four of 8 patients”. Besides, the tolerability entry in [2] (daily doses of 40, 80, 120 mg for 10 days) is “generally well tolerated”. Besides, the “dose at which the frequency of significant adverse events increased” value in [2] (human, in vivo) is reported as 160 mg. Moreover, the Ki in data set [3], in data set [4], in data set [5], in data set [6], in data set [7] and in [8] was over 10 µM in each case. Moreover, the mesenteric artery catecholamines entry in data set [9] is “significantly decreased norepinephrine and increased dopamine and the dopamine/norepinephrine ratio”. Also, in [10] (Block 2), the all dependent measures entry was “no significant effects on any of the dependent measures”. Besides, the “latency to perform the choice response vs vehicle” value in data set [10] (Block 4, 32 s delay, nepicastat 10.0 mg/kg) is reported as “longer latency to perform the choice response”. For the same compound, the “response latency, number of trials completed” value in [10] (Block 5) is given as “did not significantly affect”. Also, the choice accuracy result in [10] (Block 5, 10 and 30 mg/kg at the 32 s delay) is “marked dose- and delay-dependent impairment in choice accuracy”. Further, the “improvement of DMTP performance” value in [10] (administered alone, 10 days) is listed as “does not appear to induce memory enhancing effects”. The “reversal of the effects of scopolamine” value in data set [10] (day 11 scopolamine test) is “did not appear to reverse the effects of scopolamine”. The “days of dosing after which memory-disrupting effects are apparent” value in data set [10] (rat, in vivo) stood at 8 days. Moreover, the “blood pressure measured directly via arterial cannulae, restrained” value in [11] (10 mg/kg p.o.) is reported as “significant antihypertensive effect”. Further, the “heart rate and systolic blood pressure by tail cuff” value in data set [11] (1 and 10 mg/kg p.o., 21 days) was “did not alter heart rate, or systolic blood pressure”.
